*1 amine or outer side, *2 acyl side, *3 side chain or, on linkers, in order; H or OH if unused. Where a SMILES comes first, the peptide text is derived from it. [ ]: non-standard residue; d: D form. The star is where a group is joined. Ala(6-(2-MePh)pyridin-3-yl) = Cc1ccccc1-c1ccc(C[C@H](N)C(=O)O)cn1; Bip(2'-Et-4'-OMe) = CCc1cc(OC)ccc1-c1ccc(C[C@H](N)C(=O)O)cc1; X2 = Cc1ccccc1-c1ncc(C[C@H](N[*:1])C(=O)[*:2])cn1; αMePhe(2,6-F2) = C[C@](N)(Cc1c(F)cccc1F)C(=O)O; αMePhe(2-F) = C[C@](N)(Cc1ccccc1F)C(=O)O; αMeP = C[C@@]1(C(=O)O)CCCN1; dNMeA = CN[C@H](C)C(=O)O; Aib = CC(C)(N)C(=O)O; Moc = COC(=O)*
Assay: Dog pharmacokinetic study
Format: in vivo
Details: sc 67 μg/kg; vehicle propylene glycol/pH 7.4 phosphate buffer (1:1)
Protocol: The pharmacokinetic parameters of the Compounds of SEQ ID NO: 9, 118, 151 and 158 were determined in male beagle dogs (n=3-4, 14±1 kg). Following an overnight fast, each animal received the Compounds of SEQ ID NO: 9, 118, 151 and 158 either as an intravenous bolus via femoral vein (67 μg/kg) or by subcutaneous injection given at near the shoulder blades (67 μg/kg). Each animal received both intravenous and subcutaneous doses with a one-week washout between doses following a crossover design. The dosing vehicle for both routes of administration was propylene glycol:pH 7.4 phosphate buffer (50:50) or 0.2 M Tris (pH 8.0). Serial blood samples were collected in EDTA-containing microcentrifuge tubes at predose, 0.083, 0.25, 0.5, 0.75, 1, 2, 4, 6, 8, 24, and 30 hours post-dose after intravenous administration; at predose, 0.25, 0.5, 0.75, 1, 2, 4, 6, 8, 24, and 30 hours post-dose after subcutaneous administration. Approximately 0.3 mL of blood was collected at each time point. Blood samples were immediately centrifuged at 4° C. The obtained plasma was frozen with dry ice and stored at −20° C. Plasma drug levels were determined using the LC-MS/MS assay described below.
Plasma samples from the in vivo dog study were prepared for analysis by precipitating plasma proteins with two volumes of AcCN containing an internal standard. The samples were vortex mixed and the precipitated proteins were removed by centrifugation. The resulting supernatants were transferred to a 96-well plate and 10 μL were injected for TFC-LC/MS/MS analysis.
The TFC-HPLC system (Cohesive TX-1 Flux, Aria 2300 System) consisted of a loading pump, an eluting pump, and a CTC PAL autosampler (Cohesive Technologies, Franklin, Mass.). The columns used were Phenomenex Synergi Fusion-RP (C18, 2.0×50 mm, 4μ) (Phenomenex, Torrance, Calif.) as the analytical column and Turbo-Flow (TF) HTLC Cyclone column (0.5×50 mm) (Cohesive Technologies, Franklin, Mass.) as the extraction column for on-line sample processing. The mobile phase A consisted of 10 mM ammonium formate and 0.1% formic acid in water and mobile phase B consisted of 0.1% formic acid in AcCN. Turbo-Flow Chromatography was used to obtain a cleaner sample. A rapid gradient elution was used for analyte separation. The samples were injected onto the Turbo-Flow HTLC Cyclone column and analytes were separated from biological fluid components with using 100% H2O at 1.5 mL/min. The TF column was back flushed and analytes were back eluted from the TF to HPLC analytical column using a ramp to 60% B over 2 min and held there for 30 seconds at 0.3 mL/min to separate and to elute the analytes from the HPLC column into the mass spectrometer. Both columns were washed for an additional minute and then both columns were re-equilibrated at initial conditions.
The HPLC was interfaced to a Sciex API 4000 mass spectrometer (Applied Biosystems, Foster City, Calif.) and was equipped with a TurboIonspray ionization source. Ultra high purity nitrogen was used as the nebulizing and turbo-gas. The temperature of turbo-gas was set at 300° C. and the interface heater was set at 60° C. Selected Reaction Monitoring (SRM) was used for data acquisition. Multiple charged ion species, i.e. (M+2H)^2+ for Compound of SEQ ID NO: 158 were selected in Q1 and were collisionally dissociated with high purity nitrogen at a pressure of 3.5×10^−3 torr in Q2 to form specific product ions which were subsequently monitored in Q3. The ion transitions and voltages are summarized below (Table 4).
The standard curve concentrations, ranging from 1 to 1000 nM, were analyzed in duplicate. The curves were fitted with a linear regression weighted by reciprocal concentration […]. Quality control (QC) samples, prepared in blank matrix at the same concentrations as the standards were also analyzed in each analytical set. […]

SMILES | Exposure in dogs (sc@67 μg/kg) [µM·h]
CCc1cc(OC)ccc1-c1ccc(C[C@H](NC(=O)[C@H](CC(=O)O)NC(=O)[C@H](CO)NC(=O)[C@@H](NC(=O)[C@](C)(Cc2ccccc2F)NC(=O)[C@@H](NC(=O)CNC(=O)[C@H](Cc2c[nH]cn2)NC(=O)C(C)(C)NC(=O)[C@@H](N)Cc2c[nH]cn2)[C@@H](C)O)[C@@H](C)O)C(=O)N[C@@H](Cc2ccc(-c3ccccc3C)nc2)C(N)=O)cc1 [SEQ ID NO: 150] (H-H[Aib]HGT[αMePhe(2-F)]TSD[Bip(2'-Et-4'-OMe)][Ala(6-(2-MePh)pyridin-3-yl)]-NH2) | 0.979
CCc1cc(OC)ccc1-c1ccc(C[C@H](NC(=O)[C@H](CC(=O)O)NC(=O)[C@H](Cc2c[nH]cn2)NC(=O)[C@@H](NC(=O)[C@](C)(Cc2ccccc2F)NC(=O)[C@@H](NC(=O)CNC(=O)[C@H](CCC(=O)O)NC(=O)[C@]2(C)CCCN2C(=O)[C@@H](N)Cc2c[nH]cn2)[C@@H](C)O)[C@@H](C)O)C(=O)N[C@@H](Cc2ccc(-c3ccccc3C)nc2)C(N)=O)cc1 [SEQ ID NO: 120] (H-H[αMeP]EGT[αMePhe(2-F)]THD[Bip(2'-Et-4'-OMe)][Ala(6-(2-MePh)pyridin-3-yl)]-NH2) | 1.116
CCc1cc(OC)ccc1-c1ccc(C[C@H](NC(=O)[C@H](CC(=O)O)NC(=O)[C@H](CO)NC(=O)[C@@H](NC(=O)[C@](C)(Cc2ccccc2F)NC(=O)[C@@H](NC(=O)CNC(=O)[C@H](CCC(=O)O)NC(=O)C(C)(C)NC(=O)[C@@H](N)Cc2c[nH]cn2)[C@@H](C)O)[C@@H](C)O)C(=O)N[C@@H](Cc2cnc(-c3ccccc3C)nc2)C(N)=O)cc1 [SEQ ID NO: 130] (H-H[Aib]EGT[αMePhe(2-F)]TSD[Bip(2'-Et-4'-OMe)][X2]-NH2) | 0.541
CCc1cc(OC)ccc1-c1ccc(C[C@H](NC(=O)[C@H](CC(=O)O)NC(=O)[C@H](CO)NC(=O)[C@@H](NC(=O)[C@](C)(Cc2ccccc2F)NC(=O)[C@@H](NC(=O)CNC(=O)[C@H](CCC(=O)O)NC(=O)[C@@H](C)N(C)C(=O)[C@@H](N)Cc2c[nH]cn2)[C@@H](C)O)[C@@H](C)O)C(=O)N[C@@H](Cc2ccc(-c3ccccc3C)nc2)C(N)=O)cc1 [SEQ ID NO: 119] (H-H[dNMeA]EGT[αMePhe(2-F)]TSD[Bip(2'-Et-4'-OMe)][Ala(6-(2-MePh)pyridin-3-yl)]-NH2) | 1.257
CCc1cc(OC)ccc1-c1ccc(C[C@H](NC(=O)[C@H](CC(=O)O)NC(=O)[C@H](CO)NC(=O)[C@@H](NC(=O)[C@](C)(Cc2ccccc2F)NC(=O)[C@@H](NC(=O)CNC(=O)[C@H](CCC(=O)O)NC(=O)[C@@H](C)NC(=O)[C@@H](N)Cc2c[nH]cn2)[C@@H](C)O)[C@@H](C)O)C(=O)N[C@@H](Cc2ccc(-c3ccccc3C)nc2)C(N)=O)cc1 [SEQ ID NO: 149] (H-H[dA]EGT[αMePhe(2-F)]TSD[Bip(2'-Et-4'-OMe)][Ala(6-(2-MePh)pyridin-3-yl)]-NH2) | 0.94
CCc1cc(OC)ccc1-c1ccc(C[C@H](NC(=O)[C@H](CC(=O)O)NC(=O)[C@H](CO)NC(=O)[C@@H](NC(=O)[C@](C)(Cc2c(F)cccc2F)NC(=O)[C@@H](NC(=O)CNC(=O)[C@H](CCC(=O)O)NC(=O)[C@]2(C)CCCN2C(=O)[C@H](Cc2c[nH]cn2)NC(=O)OC)[C@@H](C)O)[C@@H](C)O)C(=O)N[C@@H](Cc2ccc(-c3ccccc3C)nc2)C(N)=O)cc1 [SEQ ID NO: 140] (Moc-H[αMeP]EGT[αMePhe(2,6-F2)]TSD[Bip(2'-Et-4'-OMe)][Ala(6-(2-MePh)pyridin-3-yl)]-NH2) | 0.283

Reference: patent publication US7960349B2 (Bristol-Myers Squibb Company, priority 2006, dated 2011)
